“And” between values parts separate entries of the source, which are not always exact repeats. Equal entries are not always repeated.
Tests used:
Assay type in all cases: in vivo, Mus musculus
[1] = system: NK cells in tumor-infiltrating lymphocytes; test: Example 1: flow cytometry, percentage of NK cells in TILs; conditions: individual mice
Experimental: (§1) Mice were sacrificed by CO2 euthanasia at the end of the study duration, and the connective tissue around tumor was resected. The tumor samples were then removed and weighed. The half tissue was fixed in 10% formaldehyde and then embedded in paraffin; the other half was prepared for the isolation of tumor-infiltrating lymphocytes (TILs).
(§2) The half of mouse tumors were dissected into smaller fragments using scalpels and then digested with a cocktail of collagenase, DNase I, and Hyaluronidase (Collagenase #C5138, DNase I #D5025, Hyaluronidase #H6254, SigmaAldrich) for at least 2 hours.
(§3) Cells were stained with the fluorescently conjugated surface antibodies and incubated for 30 minutes at 4° C., and then resuspended in staining buffer for flow cytometric analysis. Flow cytometry was done using a Navios EX Flow Cytometer (Beckman Coulter). Data were analyzed using the Kaluza Analysis Software (Beckman Coulter).

[2] = system: CD4^+ T helper cells in tumor-infiltrating lymphocytes; test: Example 1: flow cytometry, percentage of TH cells in TILs; conditions: individual mice
Experimental: as §1, §2, §3

[3] = system: PD-L1^+ cells in tumor-infiltrating lymphocytes; test: Example 1: flow cytometry, percentage of PD-L1 cells in TILs; conditions: individual animal
Experimental: as §1, §2, §3

[4] = system: HepG2 tumor; test: Example 1: tumor volume, tumor weight and TGI in HepG2 tumor bearing humanized mice
Experimental: (§4) Each group contains five mice. The human hepatocellular carcinoma cell line HepG2 were subcutaneously inoculated to the advanced immune deficiency mice. Total of 30 mice were included in this study.
2.2. […] The subcutaneous injection volume was […].
(§5) 3.1. […] The injection was performed using insulin syringe with the dosage of 10 mg/kg (Dosage of injection was changed to 20 mg/kg from Day 15) and injection volume of 10 mL/kg. […] The reference item was administered for G1. The procedure followed the standards of sample administration.
(§6) 3.2. The test item anti-hPD-L1 antibody or reference items were intraperitoneally injected to the mice on Day 8 after the inoculation of tumor cells. The injection was performed using insulin syringe with the dosage of 10 mg/kg (Dosage of injection was changed to 20 mg/kg from Day 15) and injection volume of 10 mL/kg. The test item anti-hPD-L1 was continuously administered on Day 8, 11, 15, 18, 22, 25, 29 and 32 for G4 and G6. The reference item was administered for G1. The procedure followed the standards of sample administration.
(§7) 3.3. […] The injection was performed using insulin syringe with the dosage of 1 mg/kg and injection volume of 5 mL/kg. […] The reference item was administered for G1. The procedure followed the standards of sample administration.
The measurement was performed from the next day of the inoculation. The tumor volumes were measured and recorded twice a week (Mon., Thur.). Tumor volume was calculated by ellipsoid equation according to the records ((major axis×minor axis×minor axis)×(π/6)).
Tumor volumes were used to calculate tumor growth inhibition (TGI) rates according to the following formula: TGI (%)=[1−(Ti−T0)/(Ci−C0)]×100, where Ti and Ci indicate the mean tumor volume in the treatment groups and vehicle group at the end of the experiment (Day 35). Whereas, T0 and C0 indicate the mean tumor volumes in the treatment group and vehicle group at the beginning of the experiment (Day 1).
as §1

[5] = system: CD8^+ cytotoxic T cells (CTL) in tumor-infiltrating lymphocytes; test: Example 1: flow cytometry, percentage of CTL cells in TILs
Experimental: as §1, §2, §3

[6] = Example 1: body weight and mortality of HepG2 tumor bearing humanized mice; conditions: for Body Weight, Mean: OBI-3424 1 mg/kg IV, antibody 10 mg/kg IP (20 from Day 15)
Experimental: as §4, §5, §6, §7
The measurement was performed from the next day of the inoculation. The animal body weights were measured and recorded twice per week.

[7] = TILs, flow cytometer, individual mice
[8] = TILs, gate CD45^+CD8^+ cells, individual mice

anti-hPD-L1: Anti-Human PD-L1 antibody, Avelumab
CD16^+ NK cells (CD45^+CD56^+ CD16^+) Total % ([1]; flow cytometer): 0.44% and 0.80% and 0.62% and 0.48% | NK cells (CD45^+CD56^+) Total % ([1]; flow cytometer): 1.67% and 2.61% and 1.42% and 1.80% | PD-1^+ NK cells (CD45^+CD56^+PD-1^+) Total % ([1]; flow cytometer): 2.28% (2×) and 2.10% and 1.78% | NK cells (CD45^+CD56^+) CD45^+ Gated % ([1]; gate CD45^+ cells): 9.51% and 10.84% and 12.49% and 8.78% | CD16^+ NK cells (CD45^+CD56^+ CD16^+) NK Gated % ([1]; gate CD45^+CD56^+ cells): 26.13% and 30.65% and 43.46% and 26.39% | PD-1^+ NK cells (CD45^+CD56^+PD-1^+) NK Gated % ([1]; gate CD45^+CD56^+ cells): 99.56% and 97.23% and 88.77% and 91.52% | CD16^+ NK cells (CD45^+CD56^+ CD16^+) Cell count [1]: 0.54 ×10^5 and 1.76 ×10^5 and 1.10 ×10^5 and 0.35 ×10^5 | NK cells (CD45^+CD56^+) Cell count [1]: 2.04 ×10^5 and 5.74 ×10^5 and 2.51 ×10^5 and 1.30 ×10^5 | PD-1^+ NK cells (CD45^+CD56^+PD-1^+) Cell count [1]: 2.78 ×10^5 and 5.02 ×10^5 and 3.72 ×10^5 and 1.29 ×10^5 | CD25^+ TH cells (CD45^+CD4^+ CD25^+) Total % ([2]; flow cytometer): 1.19% and 1.34% and 1.01% and 1.14% | PD-1^+ TH cells (CD45^+CD4^+ PD-1^+) Total % ([2]; flow cytometer): 10.85% and 11.67% and 6.66% and 15.38% | TH cells (CD45^+CD4^+) Total % ([2]; flow cytometer): 9.82% and 12.42% and 6.81% and 15.92% | TH cells (CD45^+CD4^+) CD45^+ Gated % ([2]; gate CD45^+ cells): 40.34% and 38.36% and 32.51% and 69.93% | CD25^+ TH cells (CD45^+CD4^+CD25^+) TH Gated % ([2]; gate CD45^+CD4^+ cells): 12.12% and 10.75% and 14.76% and 7.16% | PD-1^+ TH cells (CD45^+CD4^+ PD-1^+) TH Gated % ([2]; gate CD45^+CD4^+ cells): 99.40% (2×) and 99.02% and 99.19% | CD25^+ TH cells (CD45^+CD4^+ CD25^+) Cell count [2]: 1.45 ×10^5 and 2.95 ×10^5 and 1.79 ×10^5 and 0.82 ×10^5 | PD-1^+ TH cells (CD45^+CD4^+ PD-1^+) Cell count [2]: 13.24 ×10^5 and 25.67 ×10^5 and 11.79 ×10^5 and 11.10 ×10^5 | TH cells (CD45^+CD4^+) Cell count [2]: 11.98 ×10^5 and 27.32 ×10^5 and 12.05 ×10^5 and 11.49 ×10^5 | CD45^+ cells Cell count (×10^6) [3]: 2.97 ×10^6 and 7.12 ×10^6 and 3.71 ×10^6 and 1.64 ×10^6 | CD45^+ cells Gated % [3]: 34.93% and 47.08% and 31.41% and 28.59% | CD45^+ cells Total % [3]: 24.35% and 32.38% and 20.95% and 22.77% | Total PD-L1^+ cells (PD-L1^+) Cell count (×10^5) [3]: 1.35 ×10^5 and 3.98 ×10^5 and 15.58 ×10^5 and 12.17 ×10^5 | Total PD-L1^+ cells (PD-L1^+), Total % [3]: 1.11% and 1.81% and 8.80% and 16.86% | Total PD-L1^+ cells (PD-L1^+), Total cells Gated % [3]: 1.43% and 2.38% and 11.79% and 19.02% | Total cells Cell count (×10^6) [3]: 9.42 ×10^6 and 16.72 ×10^6 and 13.21 ×10^6 and 6.40 ×10^6 | Total cells Gated % [3]: 77.18% and 75.98% and 74.62% and 88.63% | Total cells Total % [3]: 77.18% and 75.98% and 74.62% and 88.63% | Tumor volume, Mean ([4]; D 1, group mean, OBI-3424 1 mg/kg IV, antibody 10 mg/kg IP (20 from Day 15)): 409.71 mm^3 | Tumor volume, Mean ([4]; D 4, group mean, OBI-3424 1 mg/kg IV, antibody 10 mg/kg IP (20 from Day 15)): 316.07 mm^3 | Tumor volume, Mean ([4]; D 7, group mean, OBI-3424 1 mg/kg IV, antibody 10 mg/kg IP (20 from Day 15)): 304.50 mm^3 | Tumor volume, Mean ([4]; D 11, group mean, OBI-3424 1 mg/kg IV, antibody 10 mg/kg IP (20 from Day 15)): 342.83 mm^3 | Tumor volume, Mean ([4]; D 14, group mean, OBI-3424 1 mg/kg IV, antibody 10 mg/kg IP (20 from Day 15)): 371.47 mm^3 | Tumor volume, Mean ([4]; D 18, group mean, OBI-3424 1 mg/kg IV, antibody 10 mg/kg IP (20 from Day 15)): 491.18 mm^3 | Tumor volume, Mean ([4]; D 21, group mean, OBI-3424 1 mg/kg IV, antibody 10 mg/kg IP (20 from Day 15)): 675.33 mm^3 | Tumor volume, Mean ([4]; D 25, group mean, OBI-3424 1 mg/kg IV, antibody 10 mg/kg IP (20 from Day 15)): 812.95 mm^3 | Tumor volume, Mean ([4]; D 28, group mean, OBI-3424 1 mg/kg IV, antibody 10 mg/kg IP (20 from Day 15)): 866.97 mm^3 | Tumor volume, Mean ([4]; D 32, group mean, OBI-3424 1 mg/kg IV, antibody 10 mg/kg IP (20 from Day 15)): 1155.84 mm^3 | Tumor volume, Mean ([4]; D 35, group mean (mean±SEM), OBI-3424 1 mg/kg IV, antibody 10 mg/kg IP (20 from Day 15)): 1148.64±193.00 mm^3 and 1148.64 mm^3 | Tumor weight, Mean ([4]; D 35, group mean, OBI-3424 1 mg/kg IV, antibody 10 mg/kg IP (20 from Day 15)): *1010.73 mg | mean tumor volume compared with vehicle (in words) ([4]; Day 35, vs vehicle (G1), Student's t-test): No statistically significant difference | effect on tumor growth (conclusion in words) ([4]; HepG2 humanized mouse model): no effect on tumor growth | TGI ([4]; from mean tumor volumes Day 35 vs Day 1, relative to vehicle, OBI-3424 1 mg/kg IV, antibody 10 mg/kg IP (20 from Day 15)): 35.60% | CD8^+ cytotoxic T cells (CTL) population in tumors compared with vehicle (in words) ([5]; Example 1, TILs at sacrifice, flow cytometry): not observed | CD25^+ CTL cells (CD45^+CD8^+ CD25^+) Total % [5, 7]: 0.27% and 0.30% and 0.21% and 0.63% | CTL cells (CD45^+CD8^+) Total % [5, 7]: 14.00% and 18.51% and 11.85% and 16.01% | PD-1^+ CTL cells (CD45^+CD8^+ PD-1^+) Total % [5, 7]: 17.16% and 16.84% and 12.16% and 16.68% | CTL cells (CD45^+CD8^+) CD45^+ Gated % ([5]; TILs, gate CD45^+ cells, individual mice): 57.51% and 57.17% and 56.56% and 70.33% | CD25^+ CTL cells (CD45^+CD8^+ CD25^+) CTL Gated % [5, 8]: 1.93% and 1.59% and 1.77% and 3.90% | PD-1^+ CTL cells (CD45^+CD8^+ PD-1^+) CTL Gated % [5, 8]: 97.44% and 88.98% and 94.63% and 98.61% | CD25^+ CTL cells (CD45^+CD8^+ CD25^+) Cell count ([5]; TILs, individual mice): 0.33 ×10^5 and 0.66 ×10^5 and 0.37 ×10^5 and 0.45 ×10^5 | CTL cells (CD45^+CD8^+) Cell count ([5]; TILs, individual mice): 17.08 ×10^5 and 40.72 ×10^5 and 20.97 ×10^5 and 11.56 ×10^5 | PD-1^+ CTL cells (CD45^+CD8^+ PD-1^+) Cell count ([5]; TILs, individual mice): 20.94 ×10^5 and 37.05 ×10^5 and 21.52 ×10^5 and 12.04 ×10^5 | Body Weight, Mean ([6]; Day 0, group mean): 22.87 g | Body Weight, Mean ([6]; Day 1, group mean): 22.73 g | Body Weight, Mean ([6]; Day 4, group mean): 23.32 g | Body Weight, Mean ([6]; Day 7, group mean): 23.48 g | Body Weight, Mean ([6]; Day 11, group mean): 24.17 g | Body Weight, Mean ([6]; Day 14, group mean): 23.74 g | Body Weight, Mean ([6]; Day 18, group mean): 23.56 g | Body Weight, Mean ([6]; Day 21, group mean): 23.37 g | Body Weight, Mean ([6]; Day 25, group mean): 23.70 g | Body Weight, Mean ([6]; Day 28, group mean): 23.57 g | Body Weight, Mean ([6]; Day 32, group mean): 22.55 g | Body Weight, Mean ([6]; Day 35, group mean): 23.35 g | mortality ([6]; one mouse (MI052) of G4): found dead on Day 34

Reference: patent US20240216401A1, “COMBINATION THERAPY BY USING AKR1C3-ACTIVATED COMPOUND WITH IMMUNE CHECKPOINT INHIBITOR” (OBI Pharma, Inc., priority 2021, published 2024)
